Assay results taken from US20100267763A1, “Method of Decreasing Pro-ADAM10 Secretase and/or Beta Secretase Levels” (priority 2009, published 2010).
Entries after “also recorded” stand apart in the source; their conditions may differ. Like-named read-outs stand apart in the source and are kept apart here.

What was measured:
[1] = in vivo
Source text: (§1) On the surface, reduction of alpha-secretase cleavage could be considered an undesirable effect as alpha-secretase cleaves multiple other substrates. Thus, one could hypothesize that reduction of alpha-secretase might cause toxicity. However, ST101 has been proven safe in rodent and monkey toxicity studies of up to 6 months at doses up to approximately 100-fold higher than the ones used in the 3xTg-AD mice. […] This may be due to an incomplete effect of ST101 on alpha-secretases or due to activity of other alpha-secretases compensating for a major effect of ST101 on ADAM10.

ADAM17 (TACE) = experiment: Western blot of TACE in brain extracts of 3xTg-AD mice; type: in vivo, mouse; conditions: 14.5-month-old 3xTg-AD mice, 2 months of treatment, 5 mg/kg/day in drinking water
Experimental: In addition to ADAM10, ADAM17 (TACE, which is Tumor Necrosis Factor converting enzyme) is known to act as an alpha-secretase of APP. Thus, it was tested in a Western blot whether ST101 reduces levels of ADAM17 (TACE).
(§2) The Western blot was obtained using a TACE specific antibody in brain extracts from ST101 treated 3xTG-AD mice (S) versus control mice (C). Animals were approximately 14.5 months old at sacrifice after 2 months of treatment with ST101 at 5 mg/kg/day in drinking water.

Aβ1-40 = experiment: Aβ in brain tissue from cynomolgus monkeys; type: in vivo; conditions: juvenile cynomolgus monkeys, 10 mg/kg/day by naso-gastric tube, 6 months
Experimental: (§3) Brain samples from cynomolgus monkeys were obtained at the conclusion of a six-month chronic toxicity study. The cynomolgus monkeys used in this study were juveniles of less than 4 years of age. ST101 was administered daily for 6 months by naso-gastric tube at 10 mg/kg/day (n=8 per group). Data was generated from 8 treated and 8 control animals. Levels of Aβ1-40 are shown in FIG. 9, which is a bar graph that depicts the effect of ST 101 on Aβ in brain tissue from cynomolgus monkeys. FIG. 9 depicts the amount of levels of Aβ1-40 in monkeys treated with ST 101, relative to control monkeys.

BACE1 = experiment: Western blot of BACE in brain extracts of 3xTg-AD mice; type: in vivo, mouse; conditions: 12-month-old 3xTg-AD mice, 5 mg/kg/day, 2 months
Experimental: (§4) APP C-terminal fragments C99 and C83 are created by beta-secretase and alpha-secretase cleavage respectively. The reduction of both C99 and C83 induced by ST101 could therefore be due to reduction or inhibition of secretases. This hypothesis was tested using Western blots of brain extracts from 3xTg-AD mice from the initial experiment in 12-month-old animals treated with ST101 for 2 months. The only beta-secretase is BACE1 and the constitutive alpha-secretase is ADAM10.
(§5) Western blots were probed with antibodies against BACE1 and ADAM10. FIG. 11A is a series of Western blots depicting levels of proADAM10, ADAM10, proBACE, BACE, Presenilin1 and APP-CFTs in brain extracts from ST101 treated 3xTG-AD mice (S) versus control mice (C). C: control brain extract. S: ST101-treated brain extract. Animals were approximately 12 months old at sacrifice after 2 months of treatment with ST101 at 5 mg/kg/day.
(§6) FIG. 11B depicts quantification of the Western blot bands from FIG. 11A by densitometry.

3xTg-AD mice = experiment: Morris water maze in 3xTg-AD mice; type: in vivo, mouse; conditions: 2 months
Experimental: 3xTg-AD mice of approximately one year of age were treated for 2 months with ST101. An average dose of 5 mg/kg/day was administered in drinking water (calculated dose, based on mean water consumption). Behavioral effects were tested by assessing performance on the Morris Water Maze. Biochemical effects were examined by measuring brain content of Aβ and APP by ELISA and Western Blot.
Behavioral Effects: Performance of 3xTg-AD Mice in the Morris Water Maze (MWM), adapted from Roozendaal et al., Proc. Natl. Acad. Sci. U.S.A. 100: 1328-1333 (2003).
The MWM tests both spatial memory (i.e. hippocampus dependent) and cued learning (i.e. non-hippocampal) in rodents. The maze is a circular tank filled with opaque water. Mice are placed in the water and must swim to find and escape onto a platform submerged 1.5 cm beneath the surface of the water. The time (in seconds) required to find the platform is recorded. Animals rely on visual cues in the room containing the tank in order to find the platform on successive challenges. Training was conducted daily for seven consecutive days.
Retention of training was assessed twice, 24 and 72 hours after the final training trial. Animals were subjected to a 60-second free swim in the tank with the platform removed. Parameters measured included (1) latency: time required to reach the former platform location and (2) crosses: the number of times the animal swam across the former platform location.

[2] = cited from earlier work
tau [3] = experiment: Tau immunohistochemistry with H7 anti-tau antibody in 3xTg-AD mice; type: in vivo, mouse
Source text: The 3xTg-AD mouse model incorporates both pathological hallmarks of Alzheimer's disease: Aβ amyloid plaques and neurofibrillary tangles. Neurofibrillary tangles consist of accumulates of abnormally phosphorylated tau protein. In the 3xTg-AD mice pathological somato-dendritic accumulation of tau can be seen in immunohistochemistry as part of the disease model phenotype.
ST101 effects on tau distribution and accumulation were explored in immunohistochemistry with H7 anti-tau antibody.

tau [4] = experiment: Western blot of tau and phosphorylated tau in brain extracts of 3xTg-AD mice; type: in vivo, mouse; conditions: overexposed blot, 12-month-old 3xTg-AD mice, 5 mg/kg/day, 2 months
Source text: The status of tau phosphorylation, accumulation and degradation can be assessed in Western blots. Two anti-tau antibodies, directed against non-phosphorylated and phosphorylated tau, were used to probe brain extracts from the initial experiment. FIG. 12 is a series of Western blots depicting levels of full-length tau, tau accumulates, tau degradation products and phosphorylated tau levels in brain extracts from ST101 treated 3xTG-AD mice (S) versus control mice (C). Beta actin levels (Ac) were used as a loading control. P-tau, two panels per antibody: top—normal exposure; bottom—overexposure to visualize minor protein bands. Ac: beta actin antibody as protein loading control. Animals were approximately 12 months old at sacrifice after 2 months of treatment with ST101 at 5 mg/kg/day.

Neuro2a cells = experiment: Aβ production by Neuro2a cultured cells, ELISA of culture medium; type: cell-based, murine; conditions: 24 hours of treatment, vs control
Experimental: Neuro2a is a murine neuroblastoma cell line that is known to produce amyloid peptides Aβ1-40 and Aβ1-42 in amounts measurable by ELISA assays. These forms of Aβ have been correlated with the pathology in AD brain and Aβ1-42 in particular is postulated to have the ability to block α7 nicotinic receptors and to produce direct neurotoxic effects. Neuro2a cells were treated for 24 hours with ST101 added to the tissue culture medium. Tissue culture medium was collected and analyzed by ELISA for the presence of Aβ.
FIGS. 1A and 1B are bar graphs that depict the effect of the compound ST101 on Aβ production by Neuro2a cells. FIG. 1A is a bar graph that depicts the Aβ concentration in the cell culture medium as a function of ST101 concentration compared to control. FIG. 1B a bar graph that depicts the ratio of Aβ1-42 to Aβ1-40 as a function of ST101 concentration compared to control.

APP = experiment: Western blot of APP and APP C-terminal fragments in brain extracts of 3xTg-AD mice; type: in vivo, mouse; conditions: 5 mg/kg/day
Experimental: To attempt to determine at what part in the Aβ processing/release pathway ST101 may be active, a series of Western blot analyses of brain extracts from the same mice were conducted. These Westerns blots examined intact APP as well as products of its post-translational processing and subsequent degradation.
FIG. 4 is a Western blot that depicts APP C-terminal fragments detected by antibody CT20 in the brains of ST101-treated (S) 3xTg-AD mice, relative to untreated (C) 3xTg mice-AD.
FIG. 5 is a Western blot that depicts APP and degradation fragments detected by antibody CT20 in the brains of ST101-treated (S) 3xTg-AD mice, relative to untreated (C) 3xTg-AD mice. “CT20” stands for full length APP species, and “Actin” stands for anti-beta-actin antibody as a protein loading control.
FIGS. 10A and 10B are Western blots that depict APP carboxy-terminal fragments detected by antibody CT20 in the brains of ST101-treated (T in FIG. 10A, S in FIG. 10B) 3xTg-AD mice, relative to untreated (C) 3xTg-AD mice. FIG. 10B is from a separate experiment that used the same brain extract used in the experiment for FIG. 10A. Animals were approximately 14.5 months old at sacrifice after 2.5 months of treatment with ST101 at 5 mg/kg/day in drinking water. * denotes a control animal with low levels of CTFs.
FIGS. 10C and 10D are Western blots that depict APP carboxy-terminal fragments detected by an APP C-terminal antibody (Eptitomics #: 15654-1) in the brains of ST101-treated (S) 3xTg-AD mice, relative to untreated (C) 3xTg-AD mice. FIG. 10D is a lighter exposure of the Western blot in FIG. 10C. Animals were approximately 14.5 months old at sacrifice after 2.5 months of treatment with ST101 at 5 mg/kg/day in drinking water.

ADAM10 = experiment: Western blot of ADAM10 in brain extracts of 3xTg-AD mice; type: in vivo, mouse; conditions: 12-month-old 3xTg-AD mice, 5 mg/kg/day, 2 months
Experimental: as §4, §5, §6

[5] = cited from earlier work; remark: listed apart in the source
sAPP-beta = experiment: Western blot of sAPP-beta in brain extracts of 3xTg-AD mice; type: in vivo, mouse; conditions: 14.5-month-old 3xTg-AD mice, 2 months of treatment, 5 mg/kg/day in drinking water
Experimental: as §2, with “FIG. 10B describes a reduction of fragment C99. C99 is created by BACE cleavage which leads to release of soluble APP, specifically sAPP-beta. […] The” for “The”, “an sAPP-beta” for “a TACE”

SAMP8 mouse = conditions: cited from earlier work
Monkey toxicity studies = type: in vivo; conditions: up to 6 months, doses up to approximately 100-fold higher than in 3xTg-AD mice
Experimental: as §3, §1

Presenilin 1 = experiment: Western blot of Presenilin 1 in brain extracts of 3xTg-AD mice; type: in vivo, mouse; conditions: 12-month-old 3xTg-AD mice, 5 mg/kg/day, 2 months
Experimental: as §5, §6

[6] = 24 and 72 hours after final training, 5 mg/kg/day
[7] = 14.5-month-old 3xTg-AD mice, 2.5 months
[8] = antibody CT20, 12-month-old 3xTg-AD mice, 2 months

## O=C1N=C2C=CC=CN2C12Cc1ccccc1C2 [ST101, spiro(imidazo(1,2-a)pyridin-2(3H)-one-3,2′-indan)]
[1]
  safety in toxicity studies: proven safe
ADAM17 (TACE)
  TACE level: reduction of TACE levels in the majority of ST101 treated animals
Aβ1-40
  Aβ1-40 in brain: reduction of Aβ1-40 in animals treated with ST101 that did not reach statistical significance
BACE1
  BACE protein level: profound reduction
  Pro-BACE protein level: not significantly affected
3xTg-AD mice; 3xTg-AD mice approx. one year old, 5 mg/kg/day in drinking water, vs control
  latency on successive days of the training: greater reductions in latency
3xTg-AD mice; 3xTg-AD mouse strain, 5 mg/kg/day
  learning and memory performance: improves learning and memory performance
3xTg-AD mice; [6]
  crosses during retention testing: increases in crosses
  latency during retention testing: reductions in latency
[2]; methamphetamine, MK-801, scopolamine
  memory deficits induced by chemical amnesic agents: attenuates
[2]; rodent models
  age-impaired memory: significantly improves
Tau [3]
  neuronal loss, Hematoxylin/Eosin stained control sections: no neuronal loss
Tau [3]; hippocampus, H7 anti-tau antibody
  pathological somato-dendritic tau staining: clear reduction
Tau [4]; H7 antibody
  accumulated tau and degradation products: disappearance of accumulated tau and degradation products
Tau [4]; R-p-tau antibody
  phosphorylated tau degradation product: appearance of a new phosphorylated tau degradation product
Neuro2a cells
  Aβ1-40 in cell culture medium: without major effects
  Aβ1-42 in cell culture medium: significantly reduced
APP; [7]
  17 kDa fragment: lack of detection
  C99 fragment: much more pronounced; also recorded: reduction
APP; 14.5-month-old 3xTg-AD mice, 2.5 months, compared with 12-month-old mice
  C83 fragment: not reduced to the same degree
APP; [8]
  C83 C-terminal APP fragment: substantial decrease
  C99 C-terminal APP fragment: substantial decrease
  major APP degradation intermediate (~50 kDa): disappearance or significant reduction
  molecular weight of full-length APP species: slightly lowered molecular weight of some full-length species
  novel C-terminal APP fragment of about 17 kDa: appearance
APP; antibody CT20, 14.5-month-old 3xTg-AD mice, 2.5 months
  APP CTFs: significant effect of reduction
ADAM10
  ADAM-10 protein level: not significantly affected
  pro-ADAM10 protein level: profound reduction
[5]; cerebral cortex
  extracellular ACh concentrations: increases
[5]; hippocampus
  extracellular concentrations of both ACh and dopamine: increases
[5]; in vivo
  nicotine-stimulated release of acetylcholine (ACh): potentiates
sAPP-beta
  sAPP-beta level: concomitant reduction
SAMP8 mouse
  accumulation of Aβ-like deposits in brain tissue: decreased accumulation
  learning and memory functions: improvement
Monkey toxicity studies
  safety in toxicity studies: proven safe
Presenilin 1
  Presenilin 1 level: did not show significant changes
